# Data reported in patent US10144742B2 (Millennium Pharmaceuticals, Inc., priority 2014, dated 2018).
# pIC50: −log10 of the molar value. Read-outs that look alike come from different tables or passages of the source.
# How the values were obtained:
# PC3 cells = assay: PC3 growth inhibition (Cell-titer glo, 72 hours); assay type: cell-based; settings: Homo sapiens, PC-3, PC3 cells, 72 hours, Cell-titer glo, read-out: Percent Inhibition (PC3 growth inhibition); for inhibition at 1.667 µM: compound concentration 1.667 μM; for inhibition at 1 µM: compound concentration 1 μM
# Experimental: The ability of a compound of the invention to inhibit the growth of cells can be measured using a variety of methods known in the art. For example, the ability of a compound of the invention to inhibit the growth of PC3 cells can be measured. PC3 cells can be plated and incubated overnight under CO2. For each measurement, a compound of the invention (or vehicle e.g., DMSO) can be diluted with AIM serum free medium and added to the cell plate. The cell plate can then be incubated for 72 h under CO2. Cell-titer glo solution can be added and the plates can be incubated protected from light and the amount of luminescences can be measured. Concentration response curves can be generated by calculating the luminescence increase in test compound treated samples relative to DMSO-treated controls. Percentage remaining viability values at a single concentration can be measured. Growth inhibition (GI50) or cell viability (LD50) values can be determined from those curves.
# Compounds of the invention were assayed to measure PC3 growth inhibition at a concentration of 1 μM or 1.667 μM (Table 3). To measure PC3 growth inhibition, PC3 cells that were maintained in PRMI1640 growth medium (Life Technologies; Cat. No. 11875) at 37° C. under 5% CO2 are trypsinized and diluted at a density of 8×10^4 cells/ml, 25 ul per well of cells and plated in 384-well black tissue culture plate. The cells are incubated overnight at 37° C. under 5% CO2. For each measurement, a test compounds or vehicle control (DMSO) are diluted with AIM serum free medium and added to the cell plate. Incubate for 72 hours at 37° C. under 5% CO2. 25 μl Cell-titer glo solution (Promega; Cat. No. G8462) is added and the cell plates are incubated for 10 minutes protected from light. The luminescence is measured. Concentration response curves are generated by calculating the luminescence increase in test compound-treated samples relative to DMSO-treated controls. Percentage remaining viability values at a single concentration, growth inhibition (GI50) or cell viability (LD50) values are determined from those curves. One skilled in the art will appreciate that these values are subject to experimental variation.
# hNAMPT protein = hNAMPT protein (Homo sapiens (Human), UniProt P43490); assay: NAMPT enzyme assay (TR-FRET/HTRF, BodiPY ligand, anti 6His-Tb); assay type: binding; settings: for pIC50: read-out: IC50; for inhibition at 1 µM: read-out: Percent Inhibition
# Excerpt: As discussed above, the invention provides compounds that are useful as inhibitors of the enzyme NAMPT. The NAMPT inhibition of a compound of the invention can be measured using a variety of methods known in the art. For example, the ability of a compound of the invention to inhibit NAMPT enzyme activity can be measured using a homogeneous time resolved fluorescence (HTRF) assay using hNAMPT protein and anti 6His-Tb in buffer treated with a compound of the invention (or control e.g., DMSO) and BodiPY ligand. The TR-FRET signal can be measured using a high throughput microplate reader (e.g., Pherastar). Excitation can be carried out at 320 nm. The percent inhibition value at a single concentration of compound of the invention can be calculated relative to a control treated sample. A concentration response curve can be generated for each compound of the invention and the curve fitted to generate an IC50 value. […] Cat. No. […] To this solution is added test compounds or vehicle control (DMSO) and BodiPY ligand (structure below). The plate is shaken for 1-2 min, sealed and incubated for 1 hour at rt in the dark. The TR-FRET signal is measured using BMG Pherastar (Lanthascreen protocol on BMG Pherastar). Excitation was carried out at 320 nm, and the ratio of emission of BodiPY (520 nm) to terbium (486 nm) was determined. Concentration response curves are generated by calculating the excitation increase in test compound-treated samples relative to DMSO-treated controls. For the assay method described above, test compound percent inhibition values at a single concentration are calculated relative to control (DMSO) treated samples. Compound concentration response curves are fitted to generate IC50 values from those curves. One skilled in the art will appreciate that these values generated either as percentage inhibition at a single concentration or IC50 values are subject to experimental variation.
# Sequence of hNAMPT protein (P43490 whole entry): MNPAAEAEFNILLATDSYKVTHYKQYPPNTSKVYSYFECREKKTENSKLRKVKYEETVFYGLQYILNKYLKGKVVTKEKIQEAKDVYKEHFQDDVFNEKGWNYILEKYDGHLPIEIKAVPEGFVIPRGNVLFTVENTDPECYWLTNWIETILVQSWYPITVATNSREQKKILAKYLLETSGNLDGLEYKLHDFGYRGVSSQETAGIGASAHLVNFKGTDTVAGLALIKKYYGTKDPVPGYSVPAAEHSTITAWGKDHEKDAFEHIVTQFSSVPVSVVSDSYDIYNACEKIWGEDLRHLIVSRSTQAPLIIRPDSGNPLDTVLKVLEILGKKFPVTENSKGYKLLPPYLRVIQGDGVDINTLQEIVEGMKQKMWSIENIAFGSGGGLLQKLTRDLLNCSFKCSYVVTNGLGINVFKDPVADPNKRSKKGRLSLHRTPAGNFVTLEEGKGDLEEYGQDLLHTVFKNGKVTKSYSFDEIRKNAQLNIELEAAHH
Structure (SMILES),pIC50 (hNAMPT protein; NAMPT IC50 range class),inhibition at 1 µM (hNAMPT protein; compound concentration 1 μM),inhibition at 1 µM (PC3 cells),other results
"O=C(NCCc1ncc[nH]1)c1ccc2nc(N3CCCCC3)c(-c3ccc(F)cc3)nc2c1 [Compound I-1, 3-(4-Fluorophenyl)-N-[2-(1H-imidazol-2-yl)ethyl]-2-(piperidin-1-yl)quinoxaline-6-carboxamide]",6.00 to 6.30,51%,,inhibition at 1.667 µM (PC3 cells): 3%
"CC(=O)Nc1cccc(-c2nc3ccc(C(=O)NCCCn4ccnc4)cc3nc2-c2ccccc2)c1 [Compound I-2, 2-(3-acetamidophenyl)-N-[3-(1H-imidazol-1-yl)propyl]-3-phenylquinoxaline-6-carboxamide]",6.30 to 7.00,77%,-7%,
"CN1CC=C(c2nc3cc(C(=O)NCCCn4ccnc4)ccc3nc2-c2ccccc2)CC1 [Compound I-3, N-[3-(1H-imidazol-1-yl)propyl]-3-(1-methyl-1,2,3,6-tetrahydropyridin-4-yl)-2-phenylquinoxaline-6-carboxamide]",5.00 to 5.70,9%,39%,
"Cn1cncc1CCNC(=O)c1ccc2nc(N3CCCCC3)c(-c3ccc(F)cc3)nc2c1 [Compound I-4, 3-(4-fluorophenyl)-N-[2-(1-methyl-1H-imidazol-5-yl)ethyl]-2-(piperidin-1-yl)quinoxaline-6-carboxamide]",> 7.00,93%,,inhibition at 1.667 µM (PC3 cells): 2%
"O=C(NCCCn1ccnc1)c1ccc2nc(-c3ccncc3)c(-c3ccccc3)nc2c1 [Compound I-5, N-[3-(1H-imidazol-1-yl)propyl]-3-phenyl-2-(pyridin-4-yl)quinoxaline-6-carboxamide]",6.00 to 6.30,53%,-7%,
"NC(=O)c1ccc(-c2nc3cc(C(=O)NCCCn4ccnc4)ccc3nc2-c2ccccc2)cc1 [Compound I-6, 3-(4-carbamoylphenyl)-N-[3-(1H-imidazol-1-yl)propyl]-2-phenylquinoxaline-6-carboxamide]",5.00 to 5.70,20%,91%,
"O=C1CN(c2nc3ccc(C(=O)NCCCn4ccnc4)cc3nc2-c2ccccc2)CN1 [Compound I-7, N-[3-(1H-imidazol-1-yl)propyl]-2-(4-oxoimidazolidin-1-yl)-3-phenylquinoxaline-6-carboxamide]",5.00 to 5.70,12%,105%,
"O=C(NCCCn1nnnc1S)c1ccc2nc(-c3ccc(F)cc3)c(-c3ccc(F)cc3)nc2c1 [Compound I-8, 2,3-bis(4-fluorophenyl)-N-[3-(5-sulfanyl-1H-tetrazol-1-yl)propyl]quinoxaline-6-carboxamide]",5.70 to 6.00,43%,103%,
"Cc1nc(C)c(-c2nc3cc(C(=O)NCCCn4ccnc4)ccc3nc2-c2ccccc2)s1 [Compound I-9, 3-(2,4-dimethyl-1,3-thiazol-5-yl)-N-[3-(1H-imidazol-1-yl)propyl]-2-phenylquinoxaline-6-carboxamide]",5.70 to 6.00,36%,1%,
"Cc1ccc(CCCNC(=O)c2ccc3nc(N4CCOCC4)c(-c4ccc(F)cc4)nc3c2)cn1 [Compound I-21, 3-(4-Fluorophenyl)-N-[3-(6-methylpyridin-3-yl)propyl]-2-(morpholin-4-yl)quinoxaline-6-carboxamide]",6.00 to 6.30,,,inhibition at 1 µM (hNAMPT protein): 50%
"O=C(c1ccc2nc(-c3ccc(F)cc3)c(-c3ccc(F)cc3)nc2c1)N1CCC(c2cnccn2)C1 (stereo not shown) [Compound I-40, [2,3-bis(4-fluorophenyl)quinoxalin-6-yl][3-(pyrazin-2-yl)pyrrolidin-1-yl]methanone]",5.00 to 5.70,33%,,
"O=C(NCCc1ncc[nH]1)c1ccc2nc(N3CCC(N4CCOCC4)CC3)c(-c3ccccc3)nc2c1 [Compound I-71, N-[2-(1H-imidazol-2-yl)ethyl]-2-[4-(morpholin-4-yl)piperidin-1-yl]-3-phenylquinoxaline-6-carboxamide]",6.30 to 7.00,81%,,
"O=C(c1ccc2nc(-c3ccc(F)cc3)c(-c3ccc(F)cc3)nc2c1)N1CCC(c2ccncc2)C1 (stereo not shown) [Compound I-98, [2,3-bis(4-fluorophenyl)quinoxalin-6-yl][3-(pyridin-4-yl)pyrrolidin-1-yl]methanone]",5.70 to 6.00,41%,,
"O=C(c1ccc2nc(-c3ccc(F)cc3)c(-c3ccc(F)cc3)nc2c1)N1CC(c2ccccn2)C1 [Compound I-110, [2,3-bis(4-fluorophenyl)quinoxalin-6-yl][3-(pyridin-2-yl)azetidin-1-yl]methanone]",6.00 to 6.30,66%,,
"O=C(c1ccc2nc(-c3ccc(F)cc3)c(-c3ccc(F)cc3)nc2c1)N1CCc2cnccc2C1 [Compound I-160, [2,3-bis(4-fluorophenyl)quinoxalin-6-yl](3,4-dihydro-2,6-naphthyridin-2(1H)-yl)methanone]",5.00 to 5.70,45%,,
"Cc1ccc(CCCNC(=O)c2ccc3nc(N4CCCCC4)c(-c4ccc(F)cc4)nc3c2)cn1 [Compound I-185, 3-(4-fluorophenyl)-N-[3-(6-methylpyridin-3-yl)propyl]-2-(piperidin-1-yl)quinoxaline-6-carboxamide]",6.00 to 6.30,57%,,
"O=C(c1ccc2nc(-c3ccc(F)cc3)c(-c3ccc(F)cc3)nc2c1)N1CCC(c2ccncc2)CC1 [Compound I-186, [2,3-bis(4-fluorophenyl)quinoxalin-6-yl][4-(pyridin-4-yl)piperidin-1-yl]methanone]",5.00 to 5.70,19%,,
"O=C(c1ccc2nc(-c3ccc(F)cc3)c(-c3ccc(F)cc3)nc2c1)N1CCCC1Cc1cccnc1 (stereo not shown) [Compound I-246, [2,3-bis(4-fluorophenyl)quinoxalin-6-yl][2-(pyridin-3-ylmethyl)pyrrolidin-1-yl]methanone]",5.00 to 5.70,30%,,
"O=C(c1ccc2nc(-c3ccc(F)cc3)c(-c3ccc(F)cc3)nc2c1)N1CC(n2cccn2)C1 [Compound I-249, [2,3-bis(4-fluorophenyl)quinoxalin-6-yl][3-(1H-pyrazol-1-yl)azetidin-1-yl]methanone]",5.70 to 6.00,45%,,
"O=C(NCCCn1ccnc1)c1ccc2nc(-c3ccccc3Cl)c(-c3ccccc3Cl)nc2c1 [Compound I-260, 2,3-bis(2-chlorophenyl)-N-[3-(1H-imidazol-1-yl)propyl]quinoxaline-6-carboxamide]",5.00 to 5.70,19%,,
"O=C(NCCc1c[nH]c2ccccc12)c1ccc2nc(-c3ccc(F)cc3)c(-c3ccc(F)cc3)nc2c1 [Compound I-293, 2,3-bis(4-fluorophenyl)-N-[2-(1H-indol-3-yl)ethyl]quinoxaline-6-carboxamide]",5.00 to 5.70,26%,,
"O=C(c1ccc2nc(-c3ccc(F)cc3)c(-c3ccc(F)cc3)nc2c1)N1CCC(c2ncccn2)C1 (stereo not shown) [Compound I-294, [2,3-bis(4-fluorophenyl)quinoxalin-6-yl][3-(pyrimidin-2-yl)pyrrolidin-1-yl]methanone]",5.00 to 5.70,22%,,
"COc1cccc(-c2nc3cc(C(=O)NCCCc4ncc[nH]4)ccc3nc2-c2ccc(F)cc2)n1 [Compound I-495, 2-(4-fluorophenyl)-N-[3-(1H-imidazol-2-yl)propyl]-3-(6-methoxypyridin-2-yl)quinoxaline-6-carboxamide]",,,,"inhibition at 1 µM (hNAMPT protein; NAMPT inhibition at compound concentration 1 μM): 96%; pIC50 (hNAMPT protein; NAMPT inhibition, IC50 range class): > 7.00"
